Experimental data as given in patent US20210207099A1, “METHODS AND COMPOSITIONS FOR GENERATING CELLS OF ENDODERMAL LINEAGE AND BETA CELLS AND USES THEREOF” (priority 2018, published 2021).

Tests used:
Type in all cases: cell-based, human
[1] = tested on: HUES8 cells, hepatic differentiation protocol; test: Liver differentiation with cytoskeletal compounds; conditions: 1 μM for the first 24 hours of stage 3
Procedure: For differentiation to other endodermal lineages, HUES8 stem cells were cultured and passaged normally. Differentiations were initiated 24 hours after seeding 24-well plates at 0.521×10^6 cells/cm^2. Protocols for exocrine pancreas, intestine, and liver were adapted, from literature. Either latrunculin A or nocodazole were added as indicated in each protocol. All three differentiation protocols used the same stage 1 to induce endoderm. Stage 1 (4 days): BE1 media+100 ng/mL Activin A+3 μM CHIR99021 for the first 24 hours, followed with 3 days of BE1 containing 100 ng/mL Activin A only.
Liver Differentiation: Stage 2 (2 days): BE2 media+50 ng/mL KGF. Stage 3 (4 days): BE3 media+10 ng/mL bFGF+30 ng/mL BMP4 (R&D Systems, 314-BP). For the first 24 hours only, 2 μM retinoic acid and either 1 μM latrunculin A or 1 μM nocodazole were added. Stage 4 (5 days): BE3 media+20 ng/mL OSM (R&D Systems, 295-OM)+20 ng/mL HGF (R&D Systems, 294-HG)+100 nM dexamethasone (MilliporeSigma, D4902).

[2] = tested on: plated stage 4 cells; test: qRT-PCR and immunostaining of plated stage 4 cells treated with cytoskeletal modifying compounds
Excerpt: For experiments investigating the effects of plating pancreatic progenitors, cells were differentiated with the suspension protocol for stages 1-3. At the end of stage 3, clusters were single cell dispersed with TrypLE and plated onto tissue culture plates coated with various ECM proteins at 0.625×10^6 cells/cm^2. Differentiation media for the remainder of this hybrid protocol were the same as for the suspension protocol with the exception that Y-27632 and Activin A were omitted on days 2-5 of stage 4. Additional compounds were added as indicated in each experiment: 1 μM latrunculin A (Cayman Chemical, 10010630), 1 μM latrunculin B (Cayman Chemical, 10010631), 1 μM cytochalasin D (MilliporeSigma, C2618), 1 μM jasplakinolide (Cayman Chemical, 11705), 10 μM blebbistatin (MilliporeSigma, 203389), 1 μM nocodazole (Cayman Chemical, 13857), 1 μM Y-15 (Cayman Chemical, 14485), 10 μM Y-27632, and 10 μM GDC-0994 (Selleckchem, S7554). A variety of ECM coatings were initially tested with this plating methodology, including collagen I (Corning, 354249), collagen IV (Corning, 354245), fibronectin (Gibco, 33016-015), vitronectin (Gibco, A14700), matrigel (Corning, 356230), gelatin (Fisher, G7-500), and laminins 111, 121, 211, 221, 411, 421, 511, and 521 (Biolamina, LNKT-0201). All subsequent experiments with this hybrid protocol were performed on collagen I.
Brightfield images were taken with a Leica DMi1 inverted light microscope, and fluorescence images were captured with a Nikon A1Rsi confocal microscope. For immunostaining, cells were fixed with 4% paraformaldehyde (PFA) at room temperature for 30 minutes. They were then blocked and permeabilized for 45 minutes at room temperature with an immunocytochemistry (ICC) solution consisting of 0.1% triton X (Acros Organics, 327371000) and 5% donkey serum (Jackson Immunoresearch, 017000-121) in PBS (Corning, 21-040-CV). Samples were then incubated with primary antibodies diluted in ICC solution overnight at 4° C., washed with ICC, incubated with secondary antibodies diluted in ICC for 2 hours at room temperature, and stained with DAPI for 15 minutes at room temperature. For histological sectioning, whole SC-β cell clusters generated with the planar protocol and mouse kidneys containing transplanted cells were fixed overnight with 4% PFA at 4° C. The in vitro clusters were also embedded in Histogel (Thermo Scientific, hg-4000-012). These samples were then paraffin-embedded and sectioned by the Division of Comparative Medicine (DCM) Research Animal Diagnostic Laboratory Core at Washington University in St. Louis. Paraffin was removed from sectioned samples with Histoclear (Thermo Scientific, C78-2-G), and antigen retrieval was carried out in a pressure cooker (Proteogenix, 2100 Retriever) with 0.05 M EDTA (Ambion, AM9261). Slides were blocked and permeabilized with ICC solution for 45 minutes, incubated with primary antibodies in ICC solution overnight at 4° C., and incubated with secondary antibodies for 2 hours at room temperature. Slides were then sealed with DAPI Fluoromount-G (SouthernBiotech, 0100-20).
RNA was extracted from either whole clusters or cells directly on the plate with the RNeasy Mini Kit (Qiagen, 74016). Samples were treated with a DNAse kit (Qiagen, 79254) during extraction. The High Capacity cDNA Reverse Transcriptase Kit (Applied Biosystems, 4368814) was used to synthesize cDNA on a thermocycler (Applied Biosystems, A37028). The PowerUp SYBR Green Master Mix (Applied Biosystems, A25741) was used on a StepOnePlus (Applied Biosystems), and real time PCR results were analyzed using a ΔΔCt methodology. TBP and GUSB were both used as housekeeping genes. Primer sequences were as follows.

[3] = tested on: plated pancreatic progenitors; test: Single-cell RNA sequencing of plated pancreatic progenitors treated throughout stage 4; conditions: 0.5 μM latrunculin A throughout stage 4
Procedure: Cells generated with the suspension protocol were single-cell dispersed with TrypLE from clusters at the end of stage 3 and seeded onto collagen 1 coated 24-well plates at 0.625×10^6 cells/cm^2. Either 0.5 μM latrunculin A or 5 μM nocodazole were added throughout the entirety of stage 4. At the end of stage 4, cells were single-cell dispersed, suspended in DMEM, and submitted to the Washington University Genome Technology Access Center. Library preparation was done using the Chromium Single Cell 3′ Library and Gel Bead Kit v2 (10× Genomics, 120237). Briefly, single cells were isolated in emulsions using a microfluidic platform, and each single cell emulsion was barcoded with a unique set of oligonucleotides. The GemCode Platform was used to carry out reverse transcription within each single cell emulsion, which was amplified to construct a library. The libraries were sequenced with paired-end reads of 26×98 primerbp using the Illumina HiSeq2500.
Seurat v2.0 was used to perform single cell RNA analyses. Duplicate cells and cells with high mitochondrial gene expression were filtered out using FilterCells (>9000 total genes and >5% mitochondrial genes for Untreated Control, >6000 genes and >6% mitochondrial genes for latrunculin A, >12000 genes and >4% mitochondrial genes for nocodazole). Each data set was normalized using global-scaling normalization. FindVariableGenes identified and removed outlier genes using scaled z-score dispersion. The datasets were then combined and a canonical correlation analysis (CCA) was performed with RunMultiCCA. AlignSubspace was used to align the CCA subspaces and generated a new dimension reduction for integrated analysis. Unsupervised TSNE plots were generated using RunTSNE, and the resulting clusters were defined and labeled using FindMarkers. VInPlot (Violin plots) and FeaturePlot (tsne plots) were used to visualize differences in gene expressions across each cluster and conditions.

C/C1=C/C(=O)O[C@@H]2C[C@@H](CC[C@H](C)/C=C\C=C\CC1)O[C@@](O)([C@@H]1CSC(=O)N1)C2 [latrunculin A]
hepatocyte gene expression [1]: increased hepatocyte gene expression
immunostaining for AFP [1]: more prevalent with latrunculin A treatment
NEUROG3+ and NKX6-1+ cells by immunostaining ([2]; 1 μM, plated cells at the end of stage 4): increases NEUROG3+ and decreases NKX6-1+ cells
dose response of NEUROG3 expression ([2]; added during stage 4, qRT-PCR): highly dose-dependent
expression of NEUROG3 and downstream targets NKX2.2 and NEUROD1 ([2]; compound screen, plated stage 4 cells, qRT-PCR): greatly increased expression of NEUROG3
NKX6-1 expression ([2]; latrunculin treatment during stage 4): followed the reverse trend as NEUROG3
percentage of cells in the NKX6-1+ population (pancreatic progenitor 2) [3]: 2.5%
percentage of cells with endocrine induction [3]: 44.7%
